Structures can show the parent of a compound that is named as a salt. Where two headings read alike, the source gives them in different places.
Target: T1, G protein-coupled receptor 119 (GPR-119) (Mesocricetus auratus, UniProt A0A1U8CD06)
T1 construct: hamster-derived β-cells containing G protein-coupled receptor 119 (GPR-119), HIT-T15 cells; host or cells: HIT-T15 (hamster pancreatic β-cells)
T1 sequence (A0A1U8CD06 1-334): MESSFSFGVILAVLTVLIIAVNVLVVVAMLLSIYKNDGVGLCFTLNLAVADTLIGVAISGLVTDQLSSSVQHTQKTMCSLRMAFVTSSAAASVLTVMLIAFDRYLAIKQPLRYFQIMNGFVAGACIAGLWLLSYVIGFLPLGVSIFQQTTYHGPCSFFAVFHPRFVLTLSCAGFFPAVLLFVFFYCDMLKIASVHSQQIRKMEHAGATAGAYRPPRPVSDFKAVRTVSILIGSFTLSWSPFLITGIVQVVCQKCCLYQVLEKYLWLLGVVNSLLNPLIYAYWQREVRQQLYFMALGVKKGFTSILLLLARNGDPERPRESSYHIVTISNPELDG
Test: Evaluation of cAMP activity in HIT-T15 cells (HTRF cAMP dynamic kit)
Assay type: cell-based, hamster
Details: cAMP activation
Procedure, shortened: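 HIT-T15 cells, 60,000/well, treated next day with compound at six concentrations ([…]) for 1 h at 37° C. Lysate cAMP quantified by HTRF competitive immunoassay (D2-cAMP, cryptate anti-cAMP); activity taken as change in FRET signal relative to DMSO.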

[1] = 1 h at 37° C., six concentrations, read-out: EC50

Compound	EC50 [1] [nM]	EC50 (read-out: EC50 value) [nM]	EC50 (EC50 (nM), 1 h at 37° C., six concentrations) [nM]	EC50 (EC50 value) [nM]
CCc1cnc(N2CCC(COc3ccc(C4=CCC(C(=O)N5CCCCC5)CC4)cc3)CC2)nc1 (stereo not shown) [Example 167, (4-(4-((1-(5-ethylpyrimidin-2-yl)piperidin-4-yl)methoxy)phenyl)cyclohex-3-enyl)(piperidin-1-yl)methanone hydrochloride]	14	–	–	–
CCc1cnc(N2CCC(COc3ccc(C4=CCC(C(=O)N5CCN(CCO)CC5)CC4)cc3)CC2)nc1 (stereo not shown) [Example 172, (4-(4-((1-(5-ethylpyrimidin-2-yl)piperidin-4-yl)methoxy)phenyl)cyclohex-3-enyl)(4-(2-hydroxyethyl)piperazin-1-yl)methanone]	38	–	–	–
CCc1cnc(N2CCC(COc3ccc(C4=CCC(C(=O)N5CCC(CCO)CC5)CC4)cc3)CC2)nc1 (stereo not shown) [Example 173, (4-(4-((1-(5-ethylpyrimidin-2-yl)piperidin-4-yl)methoxy)phenyl)cyclohex-3-enyl)(4-(2-hydroxyethyl)piperidin-1-yl)methanone]	18	–	–	–
CCc1cnc(N2CCC(COc3ccc(C4=CCC(C(=O)N(CC)CCO)CC4)cc3)CC2)nc1 (stereo not shown) [Example 175, N-ethyl-4-(4-((1-(5-ethylpyrimidin-2-yl)piperidin-4-yl)methoxy)phenyl)-N-(2-hydroxyethyl)cyclohex-3-enecarboxamide]	7	≤ 50	–	–
CCc1cnc(N2CCC(COc3ccc(C4=CCC(C(=O)NCC(C)(C)CO)CC4)cc3)CC2)nc1 (stereo not shown) [Example 177, 4-(4-((1-(5-ethylpyrimidin-2-yl)piperidin-4-yl)methoxy)phenyl)-N-(3-hydroxy-2,2-dimethylpropyl)cyclohex-3-enecarboxamide]	38	–	–	–
CCc1cnc(N2CCC(COc3ccc(C4=CCC(C(=O)N(CCO)CCO)CC4)cc3)CC2)nc1 (stereo not shown) [Example 181, 4-(4-((1-(5-ethylpyrimidin-2-yl)piperidin-4-yl)methoxy)phenyl)-N,N-bis(2-hydroxyethyl)cyclohex-3-enecarboxamide]	24	≤ 50	–	–
CC(C)c1noc(N2CCC(COc3ccc(C4=CCC(C(=O)N5CCC(O)CC5)CC4)cc3)CC2)n1 (stereo not shown) [Example 182, (4-hydroxypiperidin-1-yl)(4-(4-((1-(3-isopropyl-1,2,4-oxadiazol-5-yl)piperidin-4-yl)methoxy)phenyl)cyclohex-3-enyl)methanone]	27	≤ 50	–	–
CC(C)c1noc(N2CCC(COc3ccc(C4=CCC(C(=O)N5CCC(CO)CC5)CC4)cc3)CC2)n1 (stereo not shown) [Example 183, (4-(hydroxymethyl)piperidin-1-yl)(4-(4-((1-(3-isopropyl-1,2,4-oxadiazol-5-yl)piperidin-4-yl)methoxy)phenyl)cyclohex-3-enyl)methanone]	12	≤ 50	–	–
CC(C)c1noc(N2CCC(COc3ccc(C4=CCC(C(=O)N5CCC(CCO)CC5)CC4)cc3)CC2)n1 (stereo not shown) [Example 186, (4-(2-hydroxyethyl)piperidin-1-yl)(4-(4-((1-(3-isopropyl-1,2,4-oxadiazol-5-yl)piperidin-4-yl)methoxy)phenyl)cyclohex-3-enyl)methanone]	–	≤ 50	–	–
CC(C)(C)OC(=O)N1CCC(COc2ccc(C3=CCC(C(=O)NC4CCCC4)CC3)cc2)CC1 (stereo not shown) [Example 195, tert-butyl 4-((4-(4-(cyclopentylcarbamoyl)cyclohex-1-enyl)phenoxy)methyl)piperidine-1-carboxylate]	28	≤ 50	–	–
CCc1cnc(N2CCC(COc3ccc(C4=CCC(C(=O)N(C)OC)CC4)cc3)CC2)nc1 (stereo not shown) [Example 197, 4-(4-((1-(5-ethylpyrimidin-2-yl)piperidin-4-yl)methoxy)phenyl)-N-methoxy-N-methylcyclohex-3-enecarboxamide]	18	≤ 50	–	–
CC(C)(C)OC(=O)N1CCC(COc2ccc(C3=CCC(C(=O)N4CCCC4)CC3)cc2)CC1 (stereo not shown) [Example 202, tert-butyl 4-((4-(4-(pyrrolidine-1-carbonyl)cyclohex-1-enyl)phenoxy)methyl)piperidine-1-carboxylate]	24	≤ 50	–	–
CCN1CCN(C(=O)C2CC=C(c3ccc(OCC4CCN(C(=O)OC(C)(C)C)CC4)cc3)CC2)CC1 (stereo not shown) [Example 203, tert-butyl 4-((4-(4-(4-ethylpiperazine-1-carbonyl)cyclohex-1-enyl)phenoxy)methyl)piperidine-1-carboxylate]	37	–	–	–
CC(C)c1noc(N2CCC(COc3ccc(C4=CCC(C(=O)N5CCc6ccccc6C5C)CC4)cc3)CC2)n1 (stereo not shown) [Example 213, (4-(4-((1-(3-isopropyl-1,2,4-oxadiazol-5-yl)piperidin-4-yl)methoxy)phenyl)cyclohex-3-enyl)(1-methyl-3,4-dihydroisoquinolin-2(1H)-yl)methanone]	24	≤ 50	–	–
CCc1cnc(N2CCC(COc3ccc(C4=CCC(C(=O)N5CCC(N6CCOCC6)CC5)CC4)cc3)CC2)nc1 (stereo not shown) [Example 220, (4-(4-((1-(5-ethylpyrimidin-2-yl)piperidin-4-yl)methoxy)phenyl)cyclohex-3-enyl)(4-morpholinopiperidin-1-yl)methanone]	40	≤ 50	–	–
CON(C)C(=O)C1CC=C(c2ccc(OCC3CCN(C(=O)OC(C)(C)C)CC3)cc2)CC1 (stereo not shown) [Example 223, tert-butyl 4-((4-(4-(methoxy(methyl)carbamoyl)cyclohex-1-enyl)phenoxy)methyl)piperidine-1-carboxylate]	25	≤ 50	–	–
CC(C)(C)OC(=O)N1CCC(COc2ccc(C3=CCC(C(=O)N4CC=CC4)CC3)cc2)CC1 (stereo not shown) [Example 224, tert-butyl 4-((4-(4-(2,5-dihydro-1H-pyrrole-1-carbonyl)cyclohex-1-enyl)phenoxy)methyl)piperidine-1-carboxylate]	38	≤ 50	–	–
CC(C)(C)OC(=O)N1CCC(COc2ccc(C3=CCC(C(=O)N4CCC(O)CC4)CC3)cc2)CC1 (stereo not shown) [Example 225, tert-butyl 4-((4-(4-(4-hydroxypiperidine-1-carbonyl)cyclohex-1-enyl)phenoxy)methyl)piperidine-1-carboxylate]	22	≤ 50	–	–
CC(C)(C)OC(=O)N1CCC(COc2ccc(C3=CCC(C(=O)N4CCC(CO)CC4)CC3)cc2)CC1 (stereo not shown) [Example 226, tert-butyl 4-((4-(4-(4-(hydroxymethyl)piperidine-1-carbonyl)cyclohex-1-enyl)phenoxy)methyl)piperidine-1-carboxylate]	14	≤ 50	–	–
CCc1cnc(N2CCC(COc3ccc(C4=CCC(C(=O)N5CCC6(C=Cc7ccccc76)CC5)CC4)cc3)CC2)nc1 (stereo not shown) [Example 228, (4-(4-((1-(5-ethylpyrimidin-2-yl)piperidin-4-yl)methoxy)phenyl)cyclohex-3-enyl)(spiro[indene-1,4′-piperidin]-1′-yl)methanone]	8	≤ 50	–	–
CCc1cnc(N2CCC(COc3ccc(C4=CCC(C(=O)N5CCC6(CC5)OCCO6)CC4)cc3)CC2)nc1 (stereo not shown) [Example 229, (4-(4-((1-(5-ethylpyrimidin-2-yl)piperidin-4-yl)methoxy)phenyl)cyclohex-3-enyl)(1,4-dioxa-8-azaspiro[4.5]decan-8-yl)methanone]	–	–	11	≤ 50
CCc1cnc(N2CCC(COc3ccc(C4=CCC(C(=O)N5CC=CC5)CC4)cc3)CC2)nc1 (stereo not shown) [Example 235, (2,5-dihydro-1H-pyrrol-1-yl)(4-(4-((1-(5-ethylpyrimidin-2-yl)piperidin-4-yl)methoxy)phenyl)cyclohex-3-enyl)methanone]	24	–	–	–
CN(CCO)C(=O)C1CC=C(c2ccc(OCC3CCN(C(=O)OC(C)(C)C)CC3)cc2)CC1 (stereo not shown) [Example 236, tert-butyl 4-((4-(4-((2-hydroxyethyl)(methyl)carbamoyl)cyclohex-1-enyl)phenoxy)methyl)piperidine-1-carboxylate]	14	≤ 50	–	–
CC(C)(C)OC(=O)N1CCC(COc2ccc(C3=CCC(C(=O)N4CCc5ccccc5C4)CC3)cc2)CC1 (stereo not shown) [Example 239, tert-butyl 4-((4-(4-(1,2,3,4-tetrahydroisoquinoline-2-carbonyl)cyclohex-1-enyl)phenoxy)methyl)piperidine-1-carboxylate]	22	–	–	–
CCc1cnc(N2CCC(COc3ccc(C4=CCC(C(=O)N(C)CCCO)CC4)cc3)CC2)nc1 (stereo not shown) [Example 242, 4-(4-((1-(5-ethylpyrimidin-2-yl)piperidin-4-yl)methoxy)phenyl)-N-(3-hydroxypropyl)-N-methylcyclohex-3-enecarboxamide]	21	≤ 50	–	–
CC(C)c1noc(N2CCC(COc3ccc(C4=CCC(C(=O)N(C)CCCO)CC4)cc3)CC2)n1 (stereo not shown) [Example 243, N-(3-hydroxypropyl)-4-(4-((1-(3-isopropyl-1,2,4-oxadiazol-5-yl)piperidin-4-yl)methoxy)phenyl)-N-methylcyclohex-3-enecarboxamide]	30	≤ 50	–	–
CON(C)C(=O)C1CC=C(c2ccc(OCC3CCN(c4nc(C(C)C)no4)CC3)cc2)CC1 (stereo not shown) [Example 247, 4-(4-((1-(3-isopropyl-1,2,4-oxadiazol-5-yl)piperidin-4-yl)methoxy)phenyl)-N-methoxy-N-methylcyclohex-3-enecarboxamide]	16	≤ 50	–	–
